# Results as given in patent publication US8044069B2, “Compounds as calcium channel blockers” (Abbott Laboratories, priority 2008, dated 2011).
# Tests used:
# [1] = molecular target: human Cav2.2 (Homo sapiens, UniProt Q00975); experiment: Assessment of calcium channel activity using FLIPR (Ca2+ influx in IMR32 cells); type: cell-based; details: IMR32 cells endogenously expressing human Cav2.2; 60 minute pre-incubation; 2 μM nifedipine; depolarized with 80 mM KCl, 5 mM CaCl2
# Outline: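 FLIPR measured Ca2+ influx triggered by 80 mM KCl depolarization together with a step to 5 mM external CaCl2. Percent inhibition relative to uninhibited activity was fitted sigmoidally for IC50.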
# [2] = test system: Sprague Dawley rats; experiment: Capsaicin induced secondary mechanical hyperalgesia model; type: in vivo; details: Rattus norvegicus, po, 1 h; 30 mg/kg p.o., 60 minutes before testing; secondary mechanical hyperalgesia 180 minutes after capsaicin; von Frey paw withdrawal threshold
# Experimental: (ii) In Vivo Data—Capsaicin Induced Secondary Mechanical Hyperalgesia Model:
# Sprague Dawley rats were briefly restrained, and capsaicin was administered at 10 μg in 10 μL of vehicle by intraplantar injection into the center of the right hind paw. Secondary mechanical hyperalgesia (SMH) was measured at the heel away from the site of injection 180 minutes following capsaicin exposure. Compounds and gabapentin (positive control), were administered p.o. 60 minutes before testing (2 hours after capsaicin) or i.p. 30 minutes before testing (2.5 hours after capsaicin). SMH was measured using calibrated von Frey filaments (Stoelting, Woodale, Ill.). Following the 1 hour habituation in the testing room, rats were moved to individual plexiglass chambers that sit on top of a wire mesh to allow for access for stimulation of the plantar surface of the hind paws. Rats were allowed to acclimate to the new chambers for 15 minutes before the onset of testing. The paw withdrawal threshold was determined by increasing and decreasing stimulus intensity (force: g) and calculated using Dixon's up-down method (Chaplan, S. R.; Bach, F. W.; Pogrel, J. W.; Chung, J. M.; Yaksh, T. L.; Quantitative assessment of tactile allodynia in the rat paw. J. Neuroscience Methods 1994, 53(1), 55-63). The filaments (maximum force of 15.0 g) were held in place for 8 seconds or until there was a withdrawal response from the mechanical stimulation.
# Sequence of human Cav2.2 (Q00975 whole entry): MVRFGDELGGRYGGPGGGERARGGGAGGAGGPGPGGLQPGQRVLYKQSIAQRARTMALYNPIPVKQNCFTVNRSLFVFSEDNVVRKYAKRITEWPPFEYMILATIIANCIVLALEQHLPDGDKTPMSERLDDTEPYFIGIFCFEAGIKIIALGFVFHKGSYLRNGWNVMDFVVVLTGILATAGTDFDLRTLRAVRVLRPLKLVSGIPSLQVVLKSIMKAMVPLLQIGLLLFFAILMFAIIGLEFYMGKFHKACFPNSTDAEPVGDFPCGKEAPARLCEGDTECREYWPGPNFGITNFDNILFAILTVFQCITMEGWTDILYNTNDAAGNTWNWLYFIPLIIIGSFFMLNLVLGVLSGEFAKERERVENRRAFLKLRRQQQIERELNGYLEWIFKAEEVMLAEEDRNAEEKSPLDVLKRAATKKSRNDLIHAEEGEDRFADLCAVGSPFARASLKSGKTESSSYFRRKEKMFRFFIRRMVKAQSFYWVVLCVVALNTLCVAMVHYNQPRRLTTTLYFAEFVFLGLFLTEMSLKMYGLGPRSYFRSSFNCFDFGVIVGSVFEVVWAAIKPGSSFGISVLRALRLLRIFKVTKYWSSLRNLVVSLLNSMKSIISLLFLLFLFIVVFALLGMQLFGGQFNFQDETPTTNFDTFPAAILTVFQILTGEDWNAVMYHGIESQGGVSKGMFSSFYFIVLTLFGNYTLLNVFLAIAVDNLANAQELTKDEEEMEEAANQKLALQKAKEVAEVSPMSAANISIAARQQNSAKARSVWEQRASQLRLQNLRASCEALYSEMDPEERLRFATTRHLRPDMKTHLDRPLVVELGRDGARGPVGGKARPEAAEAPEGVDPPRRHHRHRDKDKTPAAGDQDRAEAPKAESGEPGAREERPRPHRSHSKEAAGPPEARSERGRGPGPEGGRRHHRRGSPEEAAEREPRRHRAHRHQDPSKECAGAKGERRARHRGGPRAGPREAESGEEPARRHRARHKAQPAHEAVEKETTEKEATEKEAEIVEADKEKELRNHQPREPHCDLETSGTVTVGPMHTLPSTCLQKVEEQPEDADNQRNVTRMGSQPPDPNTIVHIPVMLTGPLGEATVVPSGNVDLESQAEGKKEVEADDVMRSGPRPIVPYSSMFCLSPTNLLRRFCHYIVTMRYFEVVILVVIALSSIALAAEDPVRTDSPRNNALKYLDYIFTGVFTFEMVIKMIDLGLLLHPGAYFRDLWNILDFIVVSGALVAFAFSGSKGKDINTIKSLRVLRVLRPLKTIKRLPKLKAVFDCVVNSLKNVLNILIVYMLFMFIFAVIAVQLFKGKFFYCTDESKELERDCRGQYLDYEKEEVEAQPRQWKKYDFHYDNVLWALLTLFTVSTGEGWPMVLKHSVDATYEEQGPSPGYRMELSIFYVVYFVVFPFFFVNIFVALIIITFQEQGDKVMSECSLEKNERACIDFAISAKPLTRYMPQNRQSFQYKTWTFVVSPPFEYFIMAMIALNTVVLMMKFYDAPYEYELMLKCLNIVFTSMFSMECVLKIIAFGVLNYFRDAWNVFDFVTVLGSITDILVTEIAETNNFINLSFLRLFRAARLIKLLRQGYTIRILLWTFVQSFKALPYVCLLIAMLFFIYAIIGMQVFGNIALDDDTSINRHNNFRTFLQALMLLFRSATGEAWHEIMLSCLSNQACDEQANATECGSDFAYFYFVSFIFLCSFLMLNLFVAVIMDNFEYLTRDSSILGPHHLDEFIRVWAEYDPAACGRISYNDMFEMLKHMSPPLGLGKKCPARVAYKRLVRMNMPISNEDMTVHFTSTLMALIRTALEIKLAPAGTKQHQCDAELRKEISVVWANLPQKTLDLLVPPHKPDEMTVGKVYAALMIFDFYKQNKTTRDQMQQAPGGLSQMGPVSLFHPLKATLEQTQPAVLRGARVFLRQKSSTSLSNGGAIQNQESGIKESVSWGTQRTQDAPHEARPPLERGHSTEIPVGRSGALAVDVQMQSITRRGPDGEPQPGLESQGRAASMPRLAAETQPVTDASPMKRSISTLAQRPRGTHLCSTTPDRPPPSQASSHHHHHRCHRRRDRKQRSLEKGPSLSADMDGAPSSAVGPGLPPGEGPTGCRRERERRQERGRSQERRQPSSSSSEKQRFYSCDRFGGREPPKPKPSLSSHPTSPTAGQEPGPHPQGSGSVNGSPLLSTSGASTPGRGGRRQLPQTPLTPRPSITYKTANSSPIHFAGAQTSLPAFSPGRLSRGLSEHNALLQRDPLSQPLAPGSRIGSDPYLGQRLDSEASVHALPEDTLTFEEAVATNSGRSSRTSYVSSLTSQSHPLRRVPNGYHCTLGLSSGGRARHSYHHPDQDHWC
# Sequence of human Cav2.2 (P54289 25-951 partner limits assumed): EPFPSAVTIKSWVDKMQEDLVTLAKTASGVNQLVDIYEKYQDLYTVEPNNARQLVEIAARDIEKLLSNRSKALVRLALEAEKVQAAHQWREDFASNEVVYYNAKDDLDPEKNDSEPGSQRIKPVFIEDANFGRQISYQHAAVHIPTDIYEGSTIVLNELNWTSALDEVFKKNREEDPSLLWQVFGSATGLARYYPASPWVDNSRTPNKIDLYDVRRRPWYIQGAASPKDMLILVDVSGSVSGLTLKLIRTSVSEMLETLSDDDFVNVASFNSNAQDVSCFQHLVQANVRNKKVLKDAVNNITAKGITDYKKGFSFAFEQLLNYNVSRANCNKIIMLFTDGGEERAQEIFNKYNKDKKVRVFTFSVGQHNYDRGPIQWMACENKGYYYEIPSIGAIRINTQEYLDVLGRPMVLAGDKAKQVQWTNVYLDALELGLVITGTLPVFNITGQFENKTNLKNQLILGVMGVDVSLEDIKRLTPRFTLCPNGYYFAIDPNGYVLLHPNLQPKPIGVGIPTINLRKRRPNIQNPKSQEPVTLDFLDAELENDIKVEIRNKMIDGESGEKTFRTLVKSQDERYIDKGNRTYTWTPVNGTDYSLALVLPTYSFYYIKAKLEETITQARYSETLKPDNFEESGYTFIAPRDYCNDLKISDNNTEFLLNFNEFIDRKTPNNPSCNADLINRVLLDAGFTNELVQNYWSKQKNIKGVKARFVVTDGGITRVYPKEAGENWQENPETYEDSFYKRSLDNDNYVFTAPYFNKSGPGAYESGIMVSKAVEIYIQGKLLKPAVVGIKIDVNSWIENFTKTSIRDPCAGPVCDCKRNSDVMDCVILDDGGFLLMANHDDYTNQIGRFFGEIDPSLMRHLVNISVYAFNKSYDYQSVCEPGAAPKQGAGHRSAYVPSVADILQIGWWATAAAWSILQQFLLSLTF
# Sequence of human Cav2.2 (P54289 952-1103 partner limits assumed): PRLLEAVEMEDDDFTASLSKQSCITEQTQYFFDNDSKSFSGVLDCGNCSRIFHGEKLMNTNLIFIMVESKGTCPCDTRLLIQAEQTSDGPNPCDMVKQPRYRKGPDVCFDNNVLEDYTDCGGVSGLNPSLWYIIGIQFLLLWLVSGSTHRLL
# Sequence of human Cav2.2 (P54284 whole entry partner): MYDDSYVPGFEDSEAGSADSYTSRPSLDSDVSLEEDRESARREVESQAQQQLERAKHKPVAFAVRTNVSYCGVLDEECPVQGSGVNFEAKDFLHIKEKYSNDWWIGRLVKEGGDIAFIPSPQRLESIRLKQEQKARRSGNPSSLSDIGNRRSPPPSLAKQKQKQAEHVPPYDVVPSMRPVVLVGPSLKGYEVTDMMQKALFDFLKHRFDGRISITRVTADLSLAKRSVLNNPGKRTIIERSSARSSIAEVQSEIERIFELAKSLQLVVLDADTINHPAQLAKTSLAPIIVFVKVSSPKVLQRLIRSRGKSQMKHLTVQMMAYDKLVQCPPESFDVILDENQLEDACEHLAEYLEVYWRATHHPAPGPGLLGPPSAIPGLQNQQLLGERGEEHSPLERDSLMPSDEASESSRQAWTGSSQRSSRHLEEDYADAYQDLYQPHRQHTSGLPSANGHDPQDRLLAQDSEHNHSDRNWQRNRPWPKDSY
compound,measurement,setting,value
"O=C(CN1CCC(c2ccc(F)cc2)C1=O)N1Cc2ccc(C(F)(F)F)cc2C1 (single isomer, unassigned; (+)) [Example 264, (+)-3-(4-fluorophenyl)-1-{2-oxo-2-[5-(trifluoromethyl)-1,3-dihydro-2H-isoindol-2-yl]ethyl}pyrrolidin-2-one]",IC50,[1],14100 nM
same,inhibition in vivo at 30 mg/kg,[2],49%
"O=C(CN1CCC(c2ccccc2)(c2ccccc2)C1=O)N1CCN(C(c2ccccc2)c2ccccc2)CC1 [Example 1, 1-[2-(4-benzhydrylpiperazin-1-yl)-2-oxoethyl]-3,3-diphenylpyrrolidin-2-one]",IC50,[1],1100 nM
same,inhibition in vivo at 30 mg/kg,[2],61%
"O=C(CN1CCC(c2ccccc2)(c2ccccc2)C1=O)N1CCC(c2ccccc2)(c2ccccc2)C1 [Example 17, 1-[2-(3,3-diphenylpyrrolidin-1-yl)-2-oxoethyl]-3,3-diphenylpyrrolidin-2-one]",IC50,[1],780 nM
same,inhibition in vivo at 30 mg/kg,[2],50%
"O=C(CN1CCC(c2ccccc2)(c2ccccc2)C1=O)N1CCN(C(c2ccccc2)c2ccccc2)C(=O)C1 [Example 28, 1-benzhydryl-4-[(2-oxo-3,3-diphenylpyrrolidin-1-yl)acetyl]piperazin-2-one]",IC50,[1],1090 nM
same,inhibition in vivo at 30 mg/kg,[2],60%
"O=C(CN1CCC(c2ccccc2)(c2ccccc2)C1=O)NC1CCN(Cc2cccc(C(F)(F)F)c2)CC1 [Example 41, 2-(2-oxo-3,3-diphenylpyrrolidin-1-yl)-N-{1-[3-(trifluoromethyl)benzyl]piperidin-4-yl}acetamide]",IC50,[1],780 nM
same,inhibition in vivo at 30 mg/kg,[2],75%
"O=C(CN1CCC(c2ccc(C(F)(F)F)cc2)C1=O)N1Cc2ccc(C(F)(F)F)cc2C1 (stereo not drawn) [Example 267, 1-{2-oxo-2-[5-(trifluoromethyl)-1,3-dihydro-2H-isoindol-2-yl]ethyl}-3-[4-(trifluoromethyl)phenyl]pyrrolidin-2-one]",IC50,[1],7350 nM
"O=C(CN1CCC(c2ccc(F)cc2Cl)C1=O)N1Cc2ccc(F)cc2C1 (stereo not drawn) [Example 268, 3-(2-chloro-4-fluorophenyl)-1-[2-(5-fluoro-1,3-dihydro-2H-isoindol-2-yl)-2-oxoethyl]pyrrolidin-2-one]",IC50,[1],11400 nM
"O=C(CN1CCC(c2ccc(F)cc2Cl)C1=O)N1Cc2ccc(C(F)(F)F)cc2C1 (stereo not drawn) [Example 269, 3-(2-chloro-4-fluorophenyl)-1-{2-oxo-2-[5-(trifluoromethyl)-1,3-dihydro-2H-isoindol-2-yl]ethyl}pyrrolidin-2-one]",IC50,[1],3210 nM
"O=C(CN1CCC(c2ccc(Cl)c(Cl)c2)C1=O)N1Cc2ccc(F)cc2C1 (stereo not drawn) [Example 270, 3-(3,4-dichlorophenyl)-1-[2-(5-fluoro-1,3-dihydro-2H-isoindol-2-yl)-2-oxoethyl]pyrrolidin-2-one]",IC50,[1],5250 nM
"O=C(CN1CCC(c2ccc(F)cc2)(c2ccc(F)cc2)C1=O)N1CCC(C(O)(c2ccc(F)cc2)c2ccc(F)cc2)CC1 [Example 271, 1-(2-{4-[bis(4-fluorophenyl)(hydroxy)methyl]piperidin-1-yl}-2-oxoethyl)-3,3-bis(4-fluorophenyl)pyrrolidin-2-one]",IC50,[1],2570 nM
"O=C(CN1CCCC(c2ccccc2)(c2ccccc2)C1=O)N1CCC(C(O)(c2ccc(F)cc2)c2ccc(F)cc2)CC1 [Example 272, 1-(2-{4-[bis(4-fluorophenyl)(hydroxy)methyl]piperidin-1-yl}-2-oxoethyl)-3,3-diphenylpiperidin-2-one]",IC50,[1],1960 nM
"CC(C)N1CCN(CC(=O)N2CCN(C(c3ccc(F)cc3)c3ccc(F)cc3)CC2)C(=O)C1c1ccccc1 (stereo not drawn) [Example 273, 1-(2-(4-(bis(4-fluorophenyl)methyl)piperazin-1-yl)-2-oxoethyl)-4-isopropyl-3-phenylpiperazin-2-one]",IC50,[1],2480 nM
"N-(1-benzhydryl-3-methylpyrrolidin-3-yl)-2-(2-oxo-3,3-diphenylpiperidin-1-yl)acetamide [Example 86]",IC50,[1],2200 nM
